From US11958861B2, “Spirocyclic lactams as JAK2 V617F inhibitors” (Incyte Corporation, priority 2021, dated 2024)
Counter-ions that a name gives are not always drawn.

Columns and labels:
[1] = target: T1, pseudo-kinase domain (JH2, amino-acids 536-812) of human Wild Type JAK2 (Homo sapiens, UniProt O60674, F794H/W659A/W777A); assay: JAK2 LanthaScreen JH2-WT Binding Assay; conditions: 1 hour at 25° C.
T1 construct: pseudo-kinase domain (JH2, amino-acids 536-812 with 3 surface mutations W659A, W777A, F794H); purchased BPS Bioscience 79463; host or cells: baculovirus expression system
T1 sequence (O60674 536-812 W659A/W777A/F794H): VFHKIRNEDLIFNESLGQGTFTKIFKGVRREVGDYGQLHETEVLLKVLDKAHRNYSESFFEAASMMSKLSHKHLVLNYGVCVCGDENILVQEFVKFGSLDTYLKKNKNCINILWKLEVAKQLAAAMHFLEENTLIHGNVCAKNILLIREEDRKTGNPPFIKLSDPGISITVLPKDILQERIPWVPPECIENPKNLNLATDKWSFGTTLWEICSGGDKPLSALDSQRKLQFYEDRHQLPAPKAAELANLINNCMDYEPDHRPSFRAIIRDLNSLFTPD
In short: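 Compounds, serially diluted, were mixed with 0.145 nM JH2 domain, 50 nM tracer and 0.25 nM streptavidin-Tb cryptate, then incubated 1 hour at 25° C before LanthaScreen reading. Wells containing 2 mM ATP defined non-specific binding. Four-parameter dose-response curves gave IC50.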

[2] = target: T2, pseudo-kinase domain (JH2, amino-acids 536-812) of human V617F mutant JAK2 (Homo sapiens, UniProt O60674, F794H/V617F/W659A/W777A); assay: JAK2 LanthaScreen JH2-V617F Binding Assay; conditions: 1 hour at 25° C.
T2 construct: pseudo-kinase domain (JH2, amino-acids 536-812 with 3 surface mutations W659A, W777A, F794H); purchased BPS Bioscience 79498; host or cells: baculovirus expression system
T2 sequence (O60674 536-812 V617F/W659A/W777A/F794H): as the sequence (O60674 536-812 W659A/W777A/F794H) above, with V82F counted along it
In short: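 This is a TR-FRET tracer-displacement format with a 1 h, 25 °C incubation. It combined 0.26 nM baculovirus-expressed biotinylated JH2-V617F, 50 nM fluorescent JAK2-JH2 tracer and 0.25 nM streptavidin-Tb cryptate in 50 mM Tris pH 7.5, 10 mM MgCl2, 5 mM DTT. Background came from 2 mM ATP, and IC50 values were from four-parameter dose-response fits.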

[3] = target: T3, catalytic domain (JH1, amino acids 808-1132) of human JAK2 (Homo sapiens, UniProt O60674); assay: JAK2 HTRF Enzyme Activity Assay; type: biochemical; conditions: ATP 30 μM, read-out: ENZ 30UMATP
T3 construct: catalytic domain (JH1, amino acids 808-1132) of human JAK2; His (N); purchased BPS Bioscience 40450; host or cells: baculovirus expression system
T3 sequence (O60674 808-1132): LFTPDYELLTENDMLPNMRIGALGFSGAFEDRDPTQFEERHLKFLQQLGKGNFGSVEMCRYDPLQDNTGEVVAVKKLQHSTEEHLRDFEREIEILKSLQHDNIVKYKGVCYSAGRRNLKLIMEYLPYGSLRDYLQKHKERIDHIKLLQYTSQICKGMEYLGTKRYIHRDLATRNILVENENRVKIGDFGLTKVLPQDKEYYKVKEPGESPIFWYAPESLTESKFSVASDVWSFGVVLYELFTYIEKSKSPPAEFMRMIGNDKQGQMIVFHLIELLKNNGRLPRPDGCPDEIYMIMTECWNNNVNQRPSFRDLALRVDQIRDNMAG
In short: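 IC50 values come from a four-parameter fit of HTRF signal (Eu-PY20 antibody/streptavidin-APC, EDTA-quenched). Reaction: 0.015 nM N-His JAK2 catalytic domain (baculovirus), 500 nM biotin-peptide, 30 μM or 1 mM ATP, Tris pH 7.5 buffer, 60 min, 25° C.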

[4] = target: T4, catalytic domain (JH1, amino acids 826-1132) of human JAK2 (Homo sapiens, UniProt O60674); assay: JAK2 LanthaScreen JH1 Binding Assay; conditions: 2 hours at 25° C.
T4 construct: catalytic domain (JH1, amino acids 826-1132) of human JAK2; purchased Carna Biosciences 08-445-20N; host or cells: baculovirus expression system
T4 sequence (O60674 826-1132): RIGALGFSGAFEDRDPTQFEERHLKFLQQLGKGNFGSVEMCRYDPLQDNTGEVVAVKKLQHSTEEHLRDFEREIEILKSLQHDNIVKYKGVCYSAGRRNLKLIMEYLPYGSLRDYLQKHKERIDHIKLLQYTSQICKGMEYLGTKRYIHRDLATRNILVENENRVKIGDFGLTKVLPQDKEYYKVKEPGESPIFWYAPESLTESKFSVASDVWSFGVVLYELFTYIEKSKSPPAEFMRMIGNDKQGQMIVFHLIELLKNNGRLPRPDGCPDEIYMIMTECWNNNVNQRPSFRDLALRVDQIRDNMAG
In short: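 Reaction held 1.5 nM biotinylated FLAG-JAK2 JH1, 50 nM tracer and 0.5 nM streptavidin-Tb in pH 7.5 Tris buffer; 2 mM ATP defined nonspecific binding.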

| Compound | IC50 [1] [nM] | IC50 [2] [nM] | IC50 [3] [nM] | IC50 [4] [nM] |
| --- | --- | --- | --- | --- |
| CN1C(=O)C2(CCN(CCC#N)CC2)c2c1cnc1[nH]c(-c3ccc(CN4CCC(S(C)(=O)=O)CC4)cc3)c(-c3ccccc3)c21 [Example 4, 3-(6-Methyl-2-((4(4-(methylsulfonyl)piperidin-1-yl)methyl)phenyl)-7-oxo-1-phenyl-6,7-dihydro-3H-spiro[dipyrrolo[2,3-b:3′,2′-d]pyridine-8,4′-piperidin]-1′-yl)propanenitrile trifluoroacetate salt] | ≤ 100 | ≤ 100 | 500 to 1250 | 500 to 1250 |
| CN1C(=O)C2(CCOC2)c2c1cnc1[nH]c(-c3ccc(CN4CCC(S(C)(=O)=O)CC4)cc3)c(-c3ccccc3)c21 (racemic) [Example 2, 6-Methyl-2-(4-((4-(methylsulfonyl)piperidin-1-yl)methyl)phenyl)-1-phenyl-3,4′,5′,6-tetrahydro-2′H,7H-spiro[dipyrrolo[2,3-b:3′,2′-d]pyridine-8,3′-furan]-7-one trifluoroacetate salt] | ≤ 100 | ≤ 100 | > 2500 | > 2500 |
| CCc1c(-c2cnn(C)c2)[nH]c2ncc3c(c12)C1(CCN(c2ccncn2)CC1)C(=O)N3C [Example 19, 1-Ethyl-6-methyl-2-(1-methyl-1H-pyrazol-4-yl)-1′-(pyrimidin-4-yl)-3,6-dihydro-7H-spiro[dipyrrolo[2,3-b:3′,2′-d]pyridine-8,4′-piperidin]-7-one, trifluoroacetate salt] | 100 to 500 | 100 to 500 | 1250 to 2500 | 1250 to 2500 |
| CN1C(=O)C2(CCN(C3(CC#N)CCC3)CC2)c2c1cnc1[nH]c(-c3cn(C)nc3C3CC3)c(-c3ccc4c(cnn4C)c3)c21 [Example 40, 2-(1-(2-(3-Cyclopropyl-1-methyl-1H-pyrazol-4-yl)-6-methyl-1-(1-methyl-1H-indazol-5-yl)-7-oxo-6,7-dihydro-3H-spiro[dipyrrolo[2,3-b:3′,2′-d]pyridine-8,4′-piperidin]-1′-yl)cyclobutyl)acetonitrile, trifluoroacetate salt] | ≤ 100 | ≤ 100 | > 2500 | > 2500 |
| CCS(=O)(=O)N1CCC[C@]2(CC1)C(=O)N(C)c1cnc3[nH]c(-c4cnn(C(C)C)c4)c(-c4ccc5c(cnn5C)c4)c3c12 (single isomer, unassigned) [Example 53a] | 100 to 500 | 500 to 1250 | > 2500 | > 2500 |
| O=C(O)C(F)(F)F.[2H]C([2H])([2H])n1ncc2cc(-c3c(-c4ccc(CN5CCOCC5)cc4)[nH]c4ncc5c(c34)C3(CC4(CN(S(=O)(=O)CC)C4)C3)C(=O)N5C)ccc21 [Example 85, 1-(Ethylsulfonyl)-6″-methyl-1″-(1-(methyl-d3)-1H-indazol-5-yl)-2″-(4-(morpholinomethyl)phenyl)-3″,6″-dihydro-7″H-dispiro[azetidine-3,1′-cyclobutane-3′,8″-dipyrrolo[2,3-b:3′,2′-d]pyridin]-7″-one, trifluoroacetate salt] | ≤ 100 | ≤ 100 | 1250 to 2500 | 1250 to 2500 |
| CN1C(=O)C2(CCN(C3(CC#N)CC(NS(=O)(=O)c4ccccc4)C3)CC2)c2c1cnc1[nH]c(-c3cnn(C)c3)c(-c3ccccc3)c21 (stereo not shown) [Example 29, N-(3-(Cyanomethyl)-3-(6-methyl-2-(1-methyl-1H-pyrazol-4-yl)-7-oxo-1-phenyl-6,7-dihydro-3H-spiro[dipyrrolo[2,3-b:3′,2′-d]pyridine-8,4′-piperidin]-1-yl)cyclobutyl)benzenesulfonamide, trifluoroacctate salt] | ≤ 100 | ≤ 100 | 500 to 1250 | 500 to 1250 |
| O=C(O)C(F)(F)F.[2H]C([2H])([2H])N1C(=O)C2(CC3(CN(S(=O)(=O)CC)C3)C2)c2c1cnc1[nH]c(-c3ccc(CN4CCOCC4)cc3)c(-c3ccc(OC)cc3)c21 [Example 92, 1-(Ethylsulfonyl)-1″-(4-methoxyphenyl)-6″-(methyl-d3)-2″-(4-(morpholinomethyl)phenyl)-3″,6″-dihydro-7″H-dispiro[azetidine-3,1′-cyclobutane-3′,8″-dipyrrolo[2,3-b:3′,2′-d]pyridin]-7″-one, trifluoroacetate salt] | ≤ 100 | ≤ 100 | > 2500 | > 2500 |
| CN1C(=O)C2(CCN(C(C)(C)C3CNC3)CC2)c2c1cnc1[nH]c(-c3cnn(C)c3)c(-c3ccc4c(cnn4C)c3)c21 [Example 84, 1′-(2-(Azetidin-3-yl)propan-2-yl)-6-methyl-1-(1-methyl-1H-indazol-5-yl)-2-(1-methyl-1H-pyrazol-4-yl)-3,6-dihydro-7H-spiro[dipyrrolo[2,3-b:3′,2′-d]pyridine-8,4′-piperidin]-7-one] | ≤ 100 | ≤ 100 | 100 to 500 | 500 to 1250 |
| [2H]C([2H])([2H])n1ncc2cc(-c3c(-c4cnn(C)c4)[nH]c4ncc5c(c34)C3(CCN([C@](C)(CC#N)COC)CC3)C(=O)N5C)ccc21 (single isomer, unassigned) [Example 80a] | ≤ 100 | ≤ 100 | 1250 to 2500 | 1250 to 2500 |
| CC(=O)NC12CC(N3CCC4(CC3)C(=O)N(C)c3cnc5[nH]c(-c6cnn(C)c6)c(-c6ccc7c(cnn7C)c6)c5c34)(C1)C2 [Example 82, N-(3-(6-Methyl-1-(1-methyl-1H-indazol-5-yl)-2-(1-methyl-1H-pyrazol-4-yl)-7-oxo-6,7-dihydro-3H-spiro[dipyrrolo[2,3-b:3′,2′-d]pyridine-8,4′-piperidin]-1′-yl)bicyclo[1.1.1]pentan-1-yl)acetamide] | ≤ 100 | ≤ 100 | 100 to 500 | 100 to 500 |
| CN1C(=O)C2(CCCC2)c2c1cnc1[nH]c(-c3cnn(C)c3)c(-c3ccc(CN4CCN(S(C)(=O)=O)CC4)cc3)c21 [Example 22, 6′-Methyl-2′-(1-methyl-1H-pyrazol-4-yl)-1′-(4-((4-(methylsulfonyl)piperazin-1-yl)methyl)phenyl)-3′,6′-dihydro-7′H-spiro[cyclopentane-1,8′-dipyrrolo[2,3-b:3′,2′-d]pyridin]-7′-one, trifluoroacetate salt] | ≤ 100 | 100 to 500 | > 2500 | > 2500 |
| CN1C(=O)C2(CCN(C3(CC#N)CCC3)CC2)c2c1cnc1[nH]c(-c3ccn(C)c3)c(-c3ccc4c(cnn4C)c3)c21 [Example 42, 2-(1-(6-Methyl-1-(1-methyl-1H-indazol-5-yl)-2-(1-methyl-IH-pyrrol-3-yl)-7-oxo-6,7-dihydro-3H-spiro[dipyrrolo[2,3b:3′,2′-d]pyridine-8,4′-piperidin]-1′-yl)cyclobutyl)acetonitrile, trifluoroacetate salt] | ≤ 100 | ≤ 100 | 100 to 500 | 500 to 1250 |
| CN1C(=O)C2(C=CN(C3(CC#N)CC3)C=C2)c2c1cnc1[nH]c(-c3cnn(C)c3)c(-c3ccc4c(cnn4C)c3)c21 [Example 74, 2-(1-(6-Methyl-1-(1-methyl-1H-indazol-5-yl)-2-(1-methyl-1H-pyrazol-4-yl)-7-oxo-6,7-dihydro-1′H,3H-spiro[dipyrrolo[2,3-b:3′,2′-d]pyridine-8,4′-pyridin]-1′-yl)cyclopropyl)acetonitrile, trifluoroacetate salt] | ≤ 100 | ≤ 100 | 500 to 1250 | 500 to 1250 |
| CN1C(=O)C2(CCCCC2)c2c1cnc1[nH]c(-c3ccc(CN4CCC(S(C)(=O)=O)CC4)cc3)c(-c3ccccc3)c21 [Example 11, 6′-Methyl-2′-((4(4-(methylsulfonyl)piperidin-1-yl)methyl)phenyl)-1′-phenyl-3′,6′-dihydro-7′H-spiro[cyclohexane-1,8′-dipyrrolo[2,3-b:3′,2′-d]pyridin]-7′-one trifluoroacetate salt] | 100 to 500 | 100 to 500 | > 2500 | > 2500 |
| CN1C(=O)C2(CCN(C(=O)CC3CCOCC3)C2)c2c1cnc1[nH]c(-c3ccc(CN4CCC(S(C)(=O)=O)CC4)cc3)c(-c3ccccc3)c21 (racemic) [Example 12, 6-Methyl-2-(4-((4-(methylsulfonyl)piperidin-1-yl)methyl)phenyl)-1-phenyl-1′-(2-(tetrahydro-2H-pyran-4-yl)acetyl)-3,6-dihydro-7H-spiro[dipyrrolo[2,3-b:3′,2′-d]pyridine-8,3′-pyrrolidin]-7-one trifluoroacetate salt] | 100 to 500 | 100 to 500 | > 2500 | > 2500 |
